IC50 data for one compound are collected here from patent publication US20100184852A1, “ORGANIC COMPOUNDS FOR TREATMENT OF DISORDERS CONNECTED TO IMPAIRED NEUROTRANSMISSION” (priority 2006, published 2010).

The target of the experiment is T1, Human recombinant norepinephrine transporter (Homo sapiens, UniProt P23975).
T1 construct: expressed in transfected cells; host or cells: dog kidney MDCK cells
Briefly: Norepinephrine uptake inhibition in MDCK cells. The class given is cell-based. The settings on record: 25 nM [3H]Norepinephrine, 10 minutes. On the procedure:
Human recombinant norepinephrine transporter stably expressed dog kidney MDCK cells are plated one day before the assay. […] Cells in the well were then rinsed twice, solubilized with 1% SDS lysis buffer and the lysate was counted to determine [^3H]Norepinephrine uptake. Specific signal was determined in the presence of 10 μM desipramine. Reduction of [^3H]Norepinephrine uptake by 50 percent or more (≧50%) relative to vehicle controls indicates significant inhibitory activity. Compounds were screened at 10, 1, 0.1, 0.01 and 0.001 μM.

T1 sequence (P23975 whole entry): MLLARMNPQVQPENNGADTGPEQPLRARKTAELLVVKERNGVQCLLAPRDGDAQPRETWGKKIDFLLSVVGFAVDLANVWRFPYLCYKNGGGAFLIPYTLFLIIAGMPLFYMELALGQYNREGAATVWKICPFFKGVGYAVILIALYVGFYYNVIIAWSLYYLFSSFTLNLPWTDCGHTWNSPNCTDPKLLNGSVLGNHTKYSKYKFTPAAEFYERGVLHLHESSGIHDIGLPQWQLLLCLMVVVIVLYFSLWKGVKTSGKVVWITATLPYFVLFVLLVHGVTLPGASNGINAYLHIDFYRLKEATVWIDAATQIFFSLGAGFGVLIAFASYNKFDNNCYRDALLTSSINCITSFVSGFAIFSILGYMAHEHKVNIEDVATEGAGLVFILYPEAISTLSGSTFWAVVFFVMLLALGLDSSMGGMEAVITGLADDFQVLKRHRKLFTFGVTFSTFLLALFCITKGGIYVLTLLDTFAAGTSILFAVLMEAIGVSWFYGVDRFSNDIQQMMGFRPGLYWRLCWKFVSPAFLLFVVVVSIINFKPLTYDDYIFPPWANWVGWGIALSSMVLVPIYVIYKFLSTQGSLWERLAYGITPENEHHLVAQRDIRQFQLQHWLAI

For the compound `CCCC[C@@H]1OC(=O)c2ccccc21` (stereo in doubt) [3-n-butylphthalide, 3-n-Butylphthalide], the IC50 worked out at 23.7 µM.

The term IC50 denotes the midpoint of a concentration-inhibition curve.
